Consider two compounds from patent US12331322B2, “Agent for accelerating growth of pluripotent stem cells” (Oriental Yeast Co., Ltd., priority 2017, dated 2025).

Experiment [1] deals with iPS cells (201B7). As to the kind of experiment: Flow cytometry of undifferentiated markers (SSEA4, low sulfated keratan sulfate) in iPS cells (201B7). The conditions noted are these: 5 or more passages, vs 0 mM. It is filed as cell-based, human. The protocol:
The differentiation potential of iPS cells maintained and grown in the presence of β-NMN was confirmed. As iPS cells, a 201B7 line was used. Specifically, iPS cells were seeded in a 35 mm dish coated with Matrigel (Corning) at 1.5×10^4 cells/dish. As culture medium in which β-NMN was added to a basal medium (E8 medium) of iPS cells so that a final concentration became 0, 0.25, or 1 mM was used. At the time of seeding, Rho-dependent apoptosis was suppressed using a culture medium to which a Rock inhibitor was added so that a final concentration became 10 μM. The medium was replaced daily and the cells were passaged on day 5 and 6. iPS cells cultured for 5 or more passages in the medium to which β-NMN was added were stained with each of antibodies against SSEA4 and against low sulfated keratan sulfate which are undifferentiated markers, and cells expressing the undifferentiated markers were analyzed with a flow cytometer.

The subject of experiment [2] is Human mesenchymal stem cells (human MSCs). The experiment in a line: WST assay, proliferative activity of human mesenchymal stem cells. It counts as cell-based. The conditions noted are these: 72 hours. How it is done:
Human MSCs purchased from Lonza were used. As a basal medium for human MSCs, a dedicated maintenance medium purchased from Lonza was used. Human MSCs were seeded in 96-well plates (Nunc) at 2×10^3 cells/well (n=3 to 4). They were cultured at 37° C. in a CO2 incubator to allow them to adhere, and then β-NMN (manufactured by Oriental Yeast Co., Ltd.) was added so that a final concentration became 1.0, 0.1, 0.01, or 0.001 mM, and culture was further performed at 37° C. in a CO2 incubator for 72 hours. Thereafter, proliferative activity of cells in each well was measured with WST assay. Specifically, after adding a viable cell count reagent SF (Nacalai Tesque) to each well and incubating at 37° C. for 1 to 4 hours, absorbance at 450 nm was measured with the reference wavelength at 620 nm using a microplate reader (absorbance values at 450 nm (ref. 620 nm) (BMG LABTECH). The term “absorbance values at 450 nm (ref. 620 nm)” is an absorbance value at 450 nm using an absorbance value at 620 nm as a reference value, and is specifically a value obtained by subtracting an absorbance value at 620 nm from an absorbance value at 450 nm. [0045]

In the next experiment the test system is iPS cells (253G1). The experiment in a line: WST assay, growth of iPS cells (253G1) in culture medium with β-NMN or NAM. It counts as cell-based. The conditions noted are these: for absorbance values at 450 nm (ref. 595 nm), WST assay, compared with basal medium: Example 3, FIG. 3, added to E8 medium. The protocol:
First, iPS cells cultured in the basal medium were separated from a culture vessel by a cell-peeling solution and recovered. The recovered cells were counted and seeded in each well of a Matrigel-coated 96-well plate at 1000 to 2000 cells/well. At this time, a ROCK inhibitor was added to each well. The 96-well plate was cultured at 37° C. for 1 day to allow the cells to adhere, and then the medium containing the ROCK inhibitor was removed from each well, the medium was replaced with a medium obtained by adding, to the basal medium, β-NMN (Oriental Yeast Co., Ltd.) so that a final concentration became 0 to 2 mM, and culturing was performed for 3 to 4 days. Thereafter, a growth ability of cells surviving in each well was measured by water-soluble tetrazolium salts (WST) assay. Specifically, after adding WST-1 (manufactured by Nacalai Tesque) to each well and incubating at 37° C. for 1 to 4 hours, absorbance values at 450 nm (ref. 595 nm) were measured using a microplate reader (manufactured by BMG LABTECH). The term “absorbance value (450 to 595 nm)” is an absorbance value at 450 nm using an absorbance value at 595 nm as a reference value, and is specifically a value obtained by subtracting an absorbance value at 595 nm from an absorbance value at 450 nm. iPS cells were cultured in culture medium containing β-NMN or NAM, and the effects of β-NMN and NAM on growth were compared. As iPS cells, 253G1 line was used. Specifically, iPS cells were cultured and WST assay was performed in the same manner as in Example 1 except that 253G1 line was used instead of 201B7 line.

Experiment [3] deals with iPS cells (201B7). The experiment in a line: Alkaline phosphatase measurement test (undifferentiated marker) on iPS cells (201B7). It is filed as cell-based, human. Conditions: Example 4, FIG. 5, β-NMN up to 1 mM added with ROCK inhibitor, vs β-NMN-free medium. The protocol:
iPS cells were cultured in a culture medium containing β-NMN, and the effects of β-NMN on differentiation potential and growth were examined. As iPS cells, a 201B7 line was used. The differentiation potential was examined using the enzyme activity of alkaline phosphatase, which is an undifferentiated marker, as an indicator. First, the iPS cells cultured in the basal medium used in Example 1 were separated from a culture vessel by a cell-peeling solution and recovered. The recovered cells were counted and seeded in each well of a Matrigel-coated 96-well plate at 2000 cells/well. At this time, the ROCK inhibitor and β-NMN having a final concentration of 0 to 1 mM were added to each well. The cells in 96-well plate was cultured at 37° C. for 1 day to allow the cells to adhere, and then the medium containing the ROCK inhibitor was removed from each well, the medium was replaced with a medium obtained by adding, to the basal medium, β-NMN so that a final concentration became 0 to 1 mM, and culturing was performed for 3 to 4 days. During this period, the medium was replaced daily. […] After drying the wells, a bicarbonate buffer containing […], which is an alkaline phosphatase measurement reagent, was added and incubated at 37° C. for 30 minutes, and then absorbance at 405 nm was measured using a microplate reader.

In experiment [4] the test system is iPS cells (201B7). As to the kind of experiment: WST assay, growth of iPS cells (201B7) in culture medium with β-NMN or NAM. It counts as cell-based, human. Conditions: for absorbance values at 450 nm (ref. 595 nm), WST assay, compared with basal medium: Example 2, FIG. 2, 0.2 or 0.4 mM added to E8 medium. How it is done: As iPS cells, 201B7 line which is human iPS cells was used. For iPS cells, an E8 medium (LTC) containing 19.4 mg/L of insulin, 10.7 mg/L of transferrin, 100 μg/L of bFGF, 2 μg/L of TGFβ, 14 μg/L of sodium selenite, 64 mg/L of ascorbic acid, and 543 mg/L of NaHCO3 in DMEM/F12 was used as the basal medium. First, iPS cells cultured in the basal medium were separated from a culture vessel by a cell-peeling solution and recovered. The recovered cells were counted and seeded in each well of a Matrigel-coated 96-well plate at 1000 to 2000 cells/well. At this time, a ROCK inhibitor was added to each well. The 96-well plate was cultured at 37° C. for 1 day to allow the cells to adhere, and then the medium containing the ROCK inhibitor was removed from each well, the medium was replaced with a medium obtained by adding, to the basal medium, β-NMN (Oriental Yeast Co., Ltd.) so that a final concentration became 0 to 2 mM, and culturing was performed for 3 to 4 days. Thereafter, a growth ability of cells surviving in each well was measured by water-soluble tetrazolium salts (WST) assay. Specifically, after adding WST-1 (manufactured by Nacalai Tesque) to each well and incubating at 37° C. for 1 to 4 hours, absorbance values at 450 nm (ref. 595 nm) were measured using a microplate reader (manufactured by BMG LABTECH). The term “absorbance value (450 to 595 nm)” is an absorbance value at 450 nm using an absorbance value at 595 nm as a reference value, and is specifically a value obtained by subtracting an absorbance value at 595 nm from an absorbance value at 450 nm. Specifically, iPS cells were cultured and the WST assay was performed in the same manner as in Example 1 except that the medium added after removing the medium containing the ROCK inhibitor was changed to a culture medium to which β-NMN was added so that a final concentration became 0, 0.2, or 0.4 mM, or a culture medium to which NAM was added so that a final concentration became 0, 0.2, or 0.4 mM. The iPS cells cultured in the basal medium used in Example 1 were separated from a culture vessel by a cell-peeling solution and recovered. The recovered cells were counted and seeded in each well of a Matrigel-coated 96-well plate at 1000 to 2000 cells/well. At this time, a ROCK inhibitor and β-NMN having a final concentration of 0 to 1 mM were added to each well. The cells in 96-well plate was cultured at 37° C. for 1 day to allow the cells to adhere, and then the medium containing the ROCK inhibitor was removed from each well, the medium was replaced with a culture medium obtained by adding, to the basal medium, β-NMN so that a final concentration became 0 to 1 mM, and culturing was performed for 3 to 4 days. Thereafter, WST assay was performed in the same manner as in Example 1. The results of measuring absorbance values at 450 nm (ref. 595 nm) of each cells cultured in a medium to which both ROCK inhibitor and β-NMN were added are shown in FIG. 4.

The structures appear in SMILES notation.

On to `NC(=O)c1ccc[n+]([C@@H]2O[C@H](COP(=O)([O-])O)[C@@H](O)[C@H]2O)c1` [β-NMN, β-nicotinamide mononucleotide], for which the “Expression of SSEA4 (flow cytometry, anti-SSEA4 antibody)” value in the experiment on iPS cells (201B7) [1] (Example 6, FIGS. 6 to 8, 0.25 mM or 1 mM of β-NMN) is “maintained”. Further, the “Expression of low sulfated keratan sulfate (flow cytometry, R10G antibody)” value in the experiment with iPS cells (201B7) [1] (Example 6, FIGS. 9 to 11, 0.25 mM or 1 mM of β-NMN) is reported as “maintained”. Besides, the “proliferative activity of human MSCs (absorbance, WST assay), overall” value in experiment [2] (addition of β-NMN 0.001 to 1.0 mM) is “increased the absorbance value and accelerated proliferative activity”. The “Absorbance value at450 nm (ref. 620 nm)” value is reported as 0.573 ± 0.0312 in experiment [2] (β-NMN concentration 0.001 mM), 0.604 ± 0.0587 in experiment [2] (β-NMN concentration 0.01 mM), 0.634 ± 0.0411 in experiment [2] (β-NMN concentration 0.1 mM) and 0.615 ± 0.0340 in experiment [2] (β-NMN concentration 1 mM). In addition, the “absorbance values at 450 nm (ref. 595 nm), WST assay, compared with basal medium” value in the experiment with iPS cells (253G1) was “higher absorbance value than that of the cell cultured in the basal medium”; in the experiment with iPS cells (201B7) [4], “higher absorbance values than cells cultured in the basal medium”. Further, the “absorbance values at 450 nm (ref. 595 nm), WST assay, β-NMN-added medium compared with NAM-added medium” value in the experiment with iPS cells (253G1) (Example 3, FIG. 3, final concentration 0.2 mM and 0.4 mM) is given as “significantly higher than that of the cells cultured in the NAM-added medium”; in the experiment with iPS cells (201B7) [4] (Example 2, FIG. 2, final concentration 0.2 mM and 0.4 mM), “significantly higher than that of the cells cultured in the NAM-added medium”. The “absorbance values at 405 nm, alkaline phosphatase measurement test” value with iPS cells (201B7) [3] is reported as “higher than that of the cells cultured in the β-NMN-free medium”. Moreover, the “absorbance values at 450 nm (ref. 595 nm), WST assay” value in the experiment with iPS cells (201B7) [4] (Example 1, FIG. 1, medium containing 0.1 mM or more of β-NMN vs β-NMN-free medium, 3 to 4 days) is recorded as “greater than that of the cells cultured in the β-NMN-free medium”; in the experiment with iPS cells (201B7) [4] (Example 1, FIG. 1, β-NMN 0.8 mM or more) it was “tended to slightly decrease”; in the experiment with iPS cells (201B7) [4] (Example 1, FIG. 1, β-NMN 0.1 to 0.2 mM), “increased in a concentration-dependent manner”; in the experiment on iPS cells (201B7) [4] (Example 1, FIG. 1, β-NMN 0.2 to 0.6 mM) it was “the absorbance value was the same”. For the same compound, the “absorbance values at 450 nm (ref. 595 nm), WST assay (effect on growth)” value in the experiment with iPS cells (201B7) [4] (Example 4, FIG. 4, β-NMN 0 to 1 mM added together with ROCK inhibitor at seeding and afterwards) is “growth-accelerating effect on iPS cells was obtained in a β-NMN concentration-dependent manner”.
`NC(=O)c1cccnc1` [NAM, nicotinamide, reference compound]: the “absorbance values at 450 nm (ref. 595 nm), WST assay, compared with basal medium” value is “slightly higher absorbance value than that of the cells cultured in the basal medium” in the experiment with iPS cells (253G1) and “higher absorbance values than cells cultured in the basal medium” in the experiment on iPS cells (201B7) [4].
